Source: ChEMBL document CHEMBL1201862, “PubChem BioAssay data set” (2004)
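Five compound concentrations were applied to cells in 96-well plates for 48 hours; endpoints were derived by simple linear interpolation of the resulting dose-response curve. GI50 is the concentration that inhibits growth by half.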 Active and inactive are the calls of the source. Rule as the data show it: active = GI50 up to about 1.1 µM and inactive = higher.

Experiments:
Assay in all cases: NCI-60 cell line screen, 48 h
A549 = test system: A549
DLD-1 = test system: DLD-1
DMS-114 = test system: DMS-114
HCC 2998 = test system: HCC 2998
M14 = test system: M14
M19-MEL = test system: M19-MEL
NCI-H23 = test system: NCI-H23
NCI-H522 = test system: NCI-H522
SF-539 = test system: SF-539
SK-MEL-5 = test system: SK-MEL-5
SN12C = test system: SN12C
SR = test system: SR
SW-620 = test system: SW-620
SK-MEL-2 = test system: SK-MEL-2

Measured: GI50

O=C(Nc1cccc(O)c1)C(=O)C1C(=O)NC(=S)NC1=O
inactive: A549 > 100 µM | DLD-1 > 100 µM | DMS-114 > 100 µM | HCC 2998 > 100 µM | M14 > 100 µM | M19-MEL > 100 µM | NCI-H23 > 100 µM | NCI-H522 > 100 µM | SF-539 > 100 µM | SK-MEL-5 > 100 µM | SN12C > 100 µM | SR > 100 µM | SW-620 > 100 µM

COC(=O)C(CC(=O)c1cc2c(cc1I)OCO2)Cc1cc(OC)c(OC)c(OC)c1I (configuration not stated)
inactive: A549 > 100 µM | DLD-1 > 100 µM | DMS-114 22.8 µM | HCC 2998 > 100 µM | M19-MEL > 100 µM | NCI-H23 45.6 µM | NCI-H522 9.06 µM | SF-539 > 100 µM | SK-MEL-2 > 100 µM | SK-MEL-5 13.6 µM | SN12C > 100 µM | SR 8.69 µM | SW-620 > 100 µM

CCCCCCCCOCC(O)COC(=O)CCCCCCC (configuration not stated)
inactive: A549 > 100 µM | DLD-1 > 100 µM | DMS-114 > 100 µM | HCC 2998 30.7 µM | M14 > 100 µM | M19-MEL 70.8 µM | NCI-H23 53.6 µM | SK-MEL-5 > 100 µM | SN12C > 100 µM | SR 17.4 µM | SW-620 > 100 µM

Cc1nc(O)nc2c1C(NCCCN(C)C)c1cc(Cl)ccc1N2 (configuration not stated)
inactive: A549 13.9 µM | DLD-1 17.8 µM | DMS-114 14.7 µM | HCC 2998 16.3 µM | M14 9.59 µM | M19-MEL 3.91 µM | NCI-H23 17.5 µM | NCI-H522 15.2 µM | SF-539 13.5 µM | SK-MEL-2 17.4 µM | SN12C 14.8 µM | SR 4.81 µM | SW-620 15.2 µM

CCOC(=O)/C(=C/c1ccco1)P(=O)(OCC)OCC
inactive: A549 > 100 µM | DLD-1 > 100 µM | DMS-114 > 100 µM | HCC 2998 > 100 µM | M14 > 100 µM | M19-MEL > 100 µM | NCI-H23 > 100 µM | NCI-H522 > 100 µM | SF-539 > 100 µM | SK-MEL-2 > 100 µM | SK-MEL-5 > 100 µM | SN12C > 100 µM | SR > 100 µM | SW-620 > 100 µM

CCOc1ccccc1NC(=O)CCc1nnc(S)[nH]1
inactive: A549 > 100 µM | DLD-1 > 100 µM | DMS-114 59.7 µM | HCC 2998 > 100 µM | M14 > 100 µM | M19-MEL > 100 µM | NCI-H23 > 100 µM | NCI-H522 > 100 µM | SF-539 > 100 µM | SK-MEL-2 > 100 µM | SK-MEL-5 > 100 µM | SN12C > 100 µM | SR > 100 µM | SW-620 > 100 µM

O=C1Sc2ccccc2C(=O)N2CCSC12 (configuration not stated)
inactive: DLD-1 > 100 µM | DMS-114 > 100 µM | HCC 2998 > 100 µM | M14 > 100 µM | M19-MEL > 100 µM | NCI-H23 > 100 µM | SK-MEL-2 > 100 µM | SK-MEL-5 > 100 µM | SN12C > 100 µM | SR > 100 µM | SW-620 > 100 µM

Cc1nc2c(n1-c1ccccc1)C(=O)c1ccccc1C2=O
inactive: A549 38.5 µM | DLD-1 48.5 µM | DMS-114 21.6 µM | HCC 2998 39.6 µM | M14 42 µM | M19-MEL 17.9 µM | NCI-H23 22.4 µM | NCI-H522 25.2 µM | SF-539 41.7 µM | SK-MEL-2 > 100 µM | SK-MEL-5 25.8 µM | SN12C 38.2 µM | SR 37.1 µM | SW-620 35.5 µM

O=c1c2cc([N+](=O)[O-])ccc2sc2ccsc12
inactive: A549 > 100 µM | DLD-1 > 100 µM | DMS-114 > 100 µM | HCC 2998 > 100 µM | M14 > 100 µM | M19-MEL > 100 µM | NCI-H23 > 100 µM | NCI-H522 > 100 µM | SF-539 > 100 µM | SK-MEL-2 > 100 µM | SK-MEL-5 > 100 µM | SN12C > 100 µM | SW-620 > 100 µM

CC1=C(C(=O)NCc2ccccc2)C(c2ccc(N(C)C)cc2)C(C(=O)NCc2ccccc2)=C(C)N1
inactive: A549 > 100 µM | DLD-1 > 100 µM | DMS-114 > 100 µM | HCC 2998 > 100 µM | M14 > 100 µM | M19-MEL > 100 µM | NCI-H23 > 100 µM | NCI-H522 77.8 µM | SF-539 > 100 µM | SK-MEL-2 > 100 µM | SK-MEL-5 > 100 µM | SN12C > 100 µM | SW-620 > 100 µM

CCOC(=O)C12CCC(=O)C=C1[C@@H](C)C(=O)CC2 (some centres not stated)
inactive: DLD-1 > 100 µM | DMS-114 > 100 µM | HCC 2998 > 100 µM | M14 > 100 µM | M19-MEL > 100 µM | NCI-H23 > 100 µM | SK-MEL-2 > 100 µM | SK-MEL-5 > 100 µM | SN12C > 100 µM | SR > 100 µM | SW-620 > 100 µM

Oc1cc(-c2ccc(Oc3ccccc3)cc2)nc2cc3c(cc12)OCO3
inactive: A549 > 100 µM | DLD-1 > 100 µM | DMS-114 > 100 µM | HCC 2998 > 100 µM | M14 > 100 µM | M19-MEL > 100 µM | NCI-H23 > 100 µM | SF-539 > 100 µM | SK-MEL-2 > 100 µM | SK-MEL-5 > 100 µM | SN12C > 100 µM | SR > 100 µM | SW-620 > 100 µM

O=C(c1ccco1)c1ccccc1C(=O)c1ccco1
inactive: A549 > 100 µM | DLD-1 > 100 µM | DMS-114 > 100 µM | HCC 2998 > 100 µM | M14 > 100 µM | M19-MEL > 100 µM | NCI-H23 > 100 µM | SF-539 > 100 µM | SK-MEL-2 > 100 µM | SK-MEL-5 > 100 µM | SN12C > 100 µM | SR > 100 µM | SW-620 > 100 µM

CC(=O)c1ccc(NC(=O)/C(=N\NC(N)=O)C(C#N)CC(C)(C)C=O)cc1 (configuration not stated)
inactive: A549 > 100 µM | DLD-1 > 100 µM | DMS-114 > 100 µM | HCC 2998 > 100 µM | M14 > 100 µM | M19-MEL > 100 µM | NCI-H23 > 100 µM | NCI-H522 > 100 µM | SF-539 > 100 µM | SK-MEL-2 > 100 µM | SK-MEL-5 > 100 µM | SN12C > 100 µM | SR > 100 µM | SW-620 > 100 µM

O=C1c2ccccc2C2(O)NC(=S)N(c3ccccc3)C12O (configuration not stated)
inactive: A549 > 100 µM | DLD-1 > 100 µM | DMS-114 > 100 µM | HCC 2998 > 100 µM | M14 > 100 µM | M19-MEL > 100 µM | NCI-H23 > 100 µM | NCI-H522 > 100 µM | SF-539 > 100 µM | SK-MEL-2 > 100 µM | SR > 100 µM | SW-620 > 100 µM
